{"source": "patent US7217735B1", "about": "“Methods and compositions for enhancing delivery of therapeutic agents to tissues” (priority 1999, dated 2007)", "key": {"[1]": {"system": "patient head and neck tumors", "experiment": "Paclitaxel efflux from tumor histocultures", "method": "(§1) The specimens were washed with culture medium for three times and dissected into about 1 mm^3 fragments under sterile conditions. The culture medium consisted of a 1:1 mixture of MEM/DMEM for patient tumors, MEM for FaDu xenografts, and RPMI1640 for PC3 xenografts, supplemented with 9% heat-inactivated FBS, 2 mM glutamine, 0.1 mM non-essential amino acids (only for MEM/DMEM), 90:g/ml gentamicin and 90:g/ml cefotaxime sodium. Five histoculture fragments were placed on a 1 cm^2 piece of presoaked collagen gel and incubated with 4 ml culture medium in 6-well plates. After 2 to 4 days, tumor histocultures were used to study the kinetics of drug penetration.\n(§2) At predetermined times, 100 μl of medium was taken from each well and the histocultures were removed from the plates. The histocultures were blot-dried on a filter paper and their weights were measured. One hundred 1 of medium or tumor samples were mixed with 0.5 ml of Solvable tissue/gel solubilizer, incubated at 50° C. in an oven overnight, and analyzed for total radioactivity using liquid scintillation counting. […] Drug concentration in tissue was calculated as (drug amount) divided by (tissue weight) and was expressed in molar terms.\n(§3) The study design of experiments using patient tumors was dictated by the size of the specimens. On some occasions, specimens from an individual patient were only sufficient to study drug uptake and efflux at one or more but not all drug concentrations. A total of 7 head and neck tumors and 3 ovarian tumors were used. For the FaDu xenograft tumor, specimens from individual animals were sufficiently large that each tumor was used for studying uptake and efflux at all four drug concentrations.\nAfter replacing the drug-containing medium with drug-free medium, the drug concentration remaining in histocultures at 24 and 72 hours post-treatment were analyzed to determine the time to reach 50% of the pseudo steady state level (T1/2,efflux). The statistical significance of the differences among patient (head and neck and ovarian, n=6) and FaDu (n=3) tumors, at equal initial medium concentrations, were analyzed using a unpaired t-test."}, "[2]": {"system": "FaDu xenograft tumor histocultures", "experiment": "[3H]paclitaxel penetration by autoradiography", "assay_type": "in vitro ADME, human", "details": "120 nM", "procedure": "The autoradiographic method was as described previously (Lesser G J et al. (1995) Cancer Chemother Pharmacol 37:173–178). […] Tissue samples were mounted on cryostat chucks with embedding matrix (O.C.T. Compound, Miles Inc., Ellchart, Ind.) and cut into 10 μm thick sections in a cryostat at −20° C. […] The slides containing the tissue sections were placed against tritium-sensitive film (Ultrofilm) in an X-ray cassette and exposed for one to two weeks at room temperature. The films were developed for 3–5 minutes at room temperature (D-19 Developer), placed in a stop bath for 30 seconds, immersed in fixer for 3 minutes and exposed to running room temperature water for 15 minutes. The films were then rinsed in Photo-flo 200 and allowed to air-dry. Separately, the tissue section slides were stained with hematoxylin and eosin.\nThe threshold for the autoradiographic image was adjusted to minimize the background signal."}, "patient ovarian tumors [3]": {"system": "patient ovarian tumors", "experiment": "Paclitaxel uptake in tumor histocultures", "method": "as §1, §2, §3\nThe statistical significance of the differences among patient (head and neck and ovarian, n=6) and FaDu (n=3) tumors, at equal initial medium concentrations, were analyzed by the two-tailed unpaired Student's t-test."}, "patient ovarian tumors [4]": {"system": "patient ovarian tumors", "experiment": "Paclitaxel efflux from tumor histocultures", "assay_type": "in vitro ADME, human"}, "FaDu xenograft tumors [5]": {"system": "FaDu xenograft tumors", "experiment": "Paclitaxel uptake in tumor histocultures", "from_the_text": "FaDu cells were obtained from American Type Culture Collection (Rockville, Mass.). MCF7 cells were obtained from Dr. Kenneth Cowan at the National Cancer Institute. Cells were harvested from subconfluent cultures using trypsin and resuspended in fresh medium before plating. Cells with greater than 90% viability, as determined by trypan blue exclusion, were used for tumor implantation. Cells were centrifuged and resuspended in Matrigel (1:1 v/v). […] The tumor establishment was achieved by subcutaneously injecting 10^6 cells (0.1–0.2 ml) with a 18 gauge needle at left and right sides of the upper back. The tumor was removed when it reached a size of 0.5 to 1 g and used for experiments.\nas §1, §2\nFor the FaDu xenograft tumor, specimens from individual animals were sufficiently large that each tumor was used for studying uptake and efflux at all four drug concentrations."}, "FaDu xenograft tumors [6]": {"system": "FaDu xenograft tumors", "experiment": "Paclitaxel efflux from tumor histocultures", "assay_type": "in vitro ADME, human"}, "[7]": {"system": "FaDu xenograft tumor histocultures", "experiment": "Apoptotic cell fraction in paclitaxel-treated histocultures (Example 1)", "assay_type": "cell-based, human", "procedure": "The fractions of stromal tissue and tumor cells in each histoculture were measured using image analysis. Briefly, stromal and tumor cells of a 100× magnification field were outlined with the computer mouse. The sizes of each of these regions were determined via image analysis by counting the number of pixels in the region. […] Apoptotic cells were determined based on morphological changes in tumor cells such as chromatin condensation and margination, disappearance of nucleoli, formation of membrane blebs, apoptotic bodies and/or cell shrinkage (Kerr J F R et al. (1994) Cancer 73:2013). […] For each tumor piece, 50 to 100 images were processed, and the fractions of the tumor represented by tumor cells, stromal tissue, and interstitial space were calculated."}, "[8]": {"details": "initial Cmedium 120 nM for 24 hr, at 24 hr post-treatment"}, "[9]": {"details": "initial Cmedium 120 nM for 24 hr, at 72 hr post-treatment"}, "[10]": {"details": "initial Cmedium 1,200 nM for 24 hr"}, "[11]": {"details": "initial Cmedium 1,200 nM for 24 hr, at 24 hr post-treatment"}, "[12]": {"details": "initial Cmedium 1,200 nM for 24 hr, at 72 hr post-treatment"}}}
{"smiles": "CC(=O)O[C@H]1C(=O)[C@@]2(C)[C@H]([C@H](OC(=O)c3ccccc3)[C@]3(O)C[C@H](OC(=O)[C@H](O)[C@@H](NC(=O)c4ccccc4)c4ccccc4)C(C)=C1C3(C)C)[C@]1(OC(C)=O)CO[C@@H]1C[C@@H]2O", "note": "[paclitaxel]", "values": [{"measurement": "T1/2,efflux", "setting": "[1]; initial Cmedium 120 nM for 24 hr", "value": "7.45 ± 3.02", "unit": "h"}, {"measurement": "% remaining in tumor", "setting": "[1]; [8]", "value": "54.8 ± 3.1", "unit": "%"}, {"measurement": "Cmedium", "setting": "[1]; [8]", "value": "1.13 ± 0.17", "unit": "nM"}, {"measurement": "Ctumor", "setting": "[1]; [8]", "value": "1.70 ± :M"}, {"measurement": "% remaining in tumor", "setting": "[1]; [9]", "value": "43.3 ± 16.3", "unit": "%"}, {"measurement": "Cmedium", "setting": "[1]; [9]", "value": "1.32 ± 0.14", "unit": "nM"}, {"measurement": "Ctumor", "setting": "[1]; [9]", "value": "1.19 ± 0.50 :M"}, {"measurement": "T1/2,efflux", "setting": "[1]; [10]", "value": "3.33 ± 2.62", "unit": "h"}, {"measurement": "% remaining in tumor", "setting": "[1]; [11]", "value": "18.7 ± 6.2", "unit": "%"}, {"measurement": "Cmedium", "setting": "[1]; [11]", "value": "7.69 ± 2.55", "unit": "nM"}, {"measurement": "Ctumor", "setting": "[1]; [11]", "value": "4.38 ± :M"}, {"measurement": "% remaining in tumor", "setting": "[1]; [12]", "value": "16.0 ± 5.3", "unit": "%"}, {"measurement": "Cmedium", "setting": "[1]; [12]", "value": "10.9 ± 1.1", "unit": "nM"}, {"measurement": "Ctumor", "setting": "[1]; [12]", "value": "4.17 ± 2.77 :M"}, {"measurement": "cell layers penetrated", "setting": "[2]; during the first 24 hours", "value": 15, "unit": "cell layers"}, {"measurement": "cell layers penetrated", "setting": "[2]; during the second 24 hours", "value": "> 80", "unit": "cell layers"}, {"measurement": "Mass balance", "setting": "patient ovarian tumors [3]; initial Cmedium 12 nM", "value": "89.3 ± 5.4", "unit": "%"}, {"measurement": "Steady state Cmedium", "setting": "patient ovarian tumors [3]; initial Cmedium 12 nM", "value": "10.6 ± 0.7", "unit": "nM"}, {"measurement": "Steady state Ctumor", "setting": "patient ovarian tumors [3]; initial Cmedium 12 nM", "value": "1.32 ± 0.31 :M"}, {"measurement": "Mass balance", "setting": "patient ovarian tumors [3]; initial Cmedium 120 nM", "value": "84.5 ± 7.3", "unit": "%"}, {"measurement": "Steady state Cmedium", "setting": "patient ovarian tumors [3]; initial Cmedium 120 nM", "value": "86.4 ± 2.3", "unit": "nM"}, {"measurement": "Steady state Ctumor", "setting": "patient ovarian tumors [3]; initial Cmedium 120 nM", "value": "2.86 ± 1.28 :M"}, {"measurement": "Mass balance", "setting": "patient ovarian tumors [3]; initial Cmedium 1,200 nM", "value": "85.2 ± 2.5", "unit": "%"}, {"measurement": "Steady state Cmedium", "setting": "patient ovarian tumors [3]; initial Cmedium 1,200 nM", "value": "870 ± 2.6", "unit": "nM"}, {"measurement": "Steady state Ctumor", "setting": "patient ovarian tumors [3]; initial Cmedium 1,200 nM", "value": "30.1 ± 11.7 :M"}, {"measurement": "Mass balance", "setting": "patient ovarian tumors [3]; initial Cmedium 12,000 nM", "value": "93.3 ± 4.5", "unit": "%"}, {"measurement": "Steady state Cmedium", "setting": "patient ovarian tumors [3]; initial Cmedium 12,000 nM", "value": "10,500 ± 920 nM"}, {"measurement": "Steady state Ctumor", "setting": "patient ovarian tumors [3]; initial Cmedium 12,000 nM", "value": "211 ± 80 :M"}, {"measurement": "% remaining in tumor", "setting": "patient ovarian tumors [4]; [8]", "value": "39.8 ± 14.2", "unit": "%"}, {"measurement": "Cmedium", "setting": "patient ovarian tumors [4]; [8]", "value": "1.19 ± 0.24", "unit": "nM"}, {"measurement": "Ctumor", "setting": "patient ovarian tumors [4]; [8]", "value": "0.615 ± :M"}, {"measurement": "% remaining in tumor", "setting": "patient ovarian tumors [4]; [9]", "value": "35.7 ± 18.5", "unit": "%"}, {"measurement": "Cmedium", "setting": "patient ovarian tumors [4]; [9]", "value": "1.60 ± 0.26", "unit": "nM"}, {"measurement": "Ctumor", "setting": "patient ovarian tumors [4]; [9]", "value": "0.520 ± 0.196 :M"}, {"measurement": "T1/2,efflux", "setting": "patient ovarian tumors [4]; [10]", "value": "5.00 ± 2.93", "unit": "h"}, {"measurement": "% remaining in tumor", "setting": "patient ovarian tumors [4]; [11]", "value": "25.9 ± 8.3", "unit": "%"}, {"measurement": "Cmedium", "setting": "patient ovarian tumors [4]; [11]", "value": "12.8 ± 3.41", "unit": "nM"}, {"measurement": "Ctumor", "setting": "patient ovarian tumors [4]; [11]", "value": "5.13 ± :M"}, {"measurement": "% remaining in tumor", "setting": "patient ovarian tumors [4]; [12]", "value": "19.8 ± 6.6", "unit": "%"}, {"measurement": "Cmedium", "setting": "patient ovarian tumors [4]; [12]", "value": "16.7 ± 2.9", "unit": "nM"}, {"measurement": "Ctumor", "setting": "patient ovarian tumors [4]; [12]", "value": "4.20 ± 1.79 :M"}, {"measurement": "Mass balance", "setting": "FaDu xenograft tumors [5]; initial Cmedium 12 nM", "value": "92.5 ± 5.1", "unit": "%"}, {"measurement": "Steady state Cmedium", "setting": "FaDu xenograft tumors [5]; initial Cmedium 12 nM", "value": "9.09 ± 0.27", "unit": "nM"}, {"measurement": "Mass balance", "setting": "FaDu xenograft tumors [5]; initial Cmedium 120 nM", "value": "86.5 ± 2.8", "unit": "%"}, {"measurement": "Steady state Cmedium", "setting": "FaDu xenograft tumors [5]; initial Cmedium 120 nM", "value": "89.7 ± 13.3", "unit": "nM"}, {"measurement": "Mass balance", "setting": "FaDu xenograft tumors [5]; initial Cmedium 1,200 nM", "value": "89.4 ± 5.7", "unit": "%"}, {"measurement": "Steady state Cmedium", "setting": "FaDu xenograft tumors [5]; initial Cmedium 1,200 nM", "value": "887 ± 131", "unit": "nM"}, {"measurement": "Mass balance", "setting": "FaDu xenograft tumors [5]; initial Cmedium 12,000 nM", "value": "90.2 ± 5.4", "unit": "%"}, {"measurement": "Steady state Cmedium", "setting": "FaDu xenograft tumors [5]; initial Cmedium 12,000 nM", "value": "8,910 ± 267 nM"}, {"measurement": "Cmedium", "setting": "FaDu xenograft tumors [6]; [8]", "value": "0.989 ± 0.228", "unit": "nM"}, {"measurement": "Ctumor", "setting": "FaDu xenograft tumors [6]; [8]", "value": "3.88 ± :M"}, {"measurement": "Cmedium", "setting": "FaDu xenograft tumors [6]; [9]", "value": "1.42 ± 0.18", "unit": "nM"}, {"measurement": "Ctumor", "setting": "FaDu xenograft tumors [6]; [9]", "value": "3.84 ± 1.04 :M"}, {"measurement": "Cmedium", "setting": "FaDu xenograft tumors [6]; [11]", "value": "12.2 ± 1.3", "unit": "nM"}, {"measurement": "Ctumor", "setting": "FaDu xenograft tumors [6]; [11]", "value": "23.2 ± :M"}, {"measurement": "Cmedium", "setting": "FaDu xenograft tumors [6]; [12]", "value": "18.9 ± 5.5", "unit": "nM"}, {"measurement": "Ctumor", "setting": "FaDu xenograft tumors [6]; [12]", "value": "17.7 ± 3.7 :M"}, {"measurement": "fraction of apoptotic cells", "setting": "[7]; 12 nM, remained relatively constant", "value": "≥ 7", "unit": "%"}, {"measurement": "fraction of apoptotic cells", "setting": "[7]; 120 nM, at 24 hours", "value": "~30", "unit": "%"}, {"measurement": "fraction of apoptotic cells", "setting": "[7]; 120 nM, at 72 hours", "value": "~50", "unit": "%"}]}
